Patent publication US10548828B2, “Use of 3,6-anhydro-L-galactose for preventing dental caries” (Korea University Research and Business Foundation, priority 2015, dated 2020)

What was measured:
S. mutans [1] = assay: Inhibitory effects under sucrose, fructose or maltose conditions, 96-well plate; type: cell-based, Streptococcus mutans; conditions: for non-growth rate: 40 g/L added
Procedure: Strains used in the present experiment are Streptococcus mutans ATCC 25175, S. oralis, and S. sanguinis. Representatively, Streptococcus mutans ATCC 25175 was pre-cultured in a brain-heart infusion (BHI) medium for 12 hours, and was washed twice with a 2 mM potassium phosphate buffer, and then was subjected to main culture in a minimal medium prepared with reference to the previously reported document (Fujiwara et al (1978) Arch Oral Biol. 23, 601-602) at 37° C. and 180 rpm. The composition of the minimal medium includes, in 5 mL of a 50 mM Tris-HCl buffer (pH 7.4), 10 mg of L-glutamic acid, 1 mg of cysteine hydrochloride, 4.5 mg of L-leucine, 5 mg of ammonium chloride, 17.5 mg of potassium hydrogen phosphate, 7.5 mg of potassium dihydrogen phosphate, 21 mg of a carbonate, 6 mg of magnesium sulfate heptahydrate, 0.1 mg of manganese chloride tetrahydrate, 3 mg of sodium pyruvate, 5 μg of riboflavin, 2.5 μg of thiamine hydrochloride, 0.5 μg of biotin, 5 μg of nicotinic acid, 0.5 μg of p-aminobenzoic acid, 2.5 μg of calcium pantothenate, and 5 μg of pyridoxine hydrochloride. Under conditions of fermentable sugars other than glucose, for example, sucrose, fructose, and maltose, inhibitory effects of AHG and xylitol on S. mutans were investigated. An experiment was carried out in a 96-well plate containing 0 g/L to 10 g/L of AHG or 0 g/L to 40 g/L of xylitol in a specified minimal medium containing 10 g/L of each of sucrose, fructose, and maltose.

S. sanguinis = assay: Growth inhibition under mixed carbon source condition (10 g/L glucose), 96-well plate; type: cell-based; conditions: 60 g/L added to 10 g/L glucose
Procedure: (§1) Strains used in the present experiment are Streptococcus mutans ATCC 25175, S. oralis, and S. sanguinis. Representatively, Streptococcus mutans ATCC 25175 was pre-cultured in a brain-heart infusion (BHI) medium for 12 hours, and was washed twice with a 2 mM potassium phosphate buffer, and then was subjected to main culture in a minimal medium prepared with reference to the previously reported document (Fujiwara et al (1978) Arch Oral Biol. 23, 601-602) at 37° C. and 180 rpm. […] Small amounts of Streptococcus mutans, S. oralis, and S. sanguinis were cultured, using the method of Example 5, in 200 μl of a liquid minimal medium containing 10 g/L of glucose and 3,6-anhydro-L-galactose or xylitol according to concentration in a 96-well plate, and growth inhibitory effects thereof were observed by measuring absorbance at a wavelength of 600 nm according to time. […]

S. mutans [2] = conditions: background statement; cited from earlier work
Streptococcus mutans [3] = assay: Colony formation of Streptococcus mutans on solid minimal medium, single carbon source; type: cell-based, Streptococcus mutans ATCC 25175; conditions: 10 g/L as single carbon source, 30 h
Procedure: Strains used in the present experiment are Streptococcus mutans ATCC 25175, S. oralis, and S. sanguinis. Representatively, Streptococcus mutans ATCC 25175 was pre-cultured in a brain-heart infusion (BHI) medium for 12 hours, and was washed twice with a 2 mM potassium phosphate buffer, and then was subjected to main culture in a minimal medium prepared with reference to the previously reported document (Fujiwara et al (1978) Arch Oral Biol. 23, 601-602) at 37° C. and 180 rpm. The composition of the minimal medium includes, in 5 mL of a 50 mM Tris-HCl buffer (pH 7.4), 10 mg of L-glutamic acid, 1 mg of cysteine hydrochloride, 4.5 mg of L-leucine, 5 mg of ammonium chloride, 17.5 mg of potassium hydrogen phosphate, 7.5 mg of potassium dihydrogen phosphate, 21 mg of a carbonate, 6 mg of magnesium sulfate heptahydrate, 0.1 mg of manganese chloride tetrahydrate, 3 mg of sodium pyruvate, 5 μg of riboflavin, 2.5 μg of thiamine hydrochloride, 0.5 μg of biotin, 5 μg of nicotinic acid, 0.5 μg of p-aminobenzoic acid, 2.5 μg of calcium pantothenate, and 5 μg of pyridoxine hydrochloride. To verify an effect of inhibiting the growth of Streptococcus mutans under a single carbon source condition, Streptococcus mutans was cultured in a solid minimal medium and a liquid minimal medium that contained 10 g/L of each of 3,6-anhydro-L-galactose, glucose, and xylitol. […]

Streptococcus mutans [4] = assay: Growth of Streptococcus mutans in liquid minimal medium, single carbon source (absorbance 600 nm); type: cell-based, Streptococcus mutans ATCC 25175; conditions: 10 g/L single carbon source, 20 h after entering a stationary phase
Procedure: Strains used in the present experiment are Streptococcus mutans ATCC 25175, S. oralis, and S. sanguinis. Representatively, Streptococcus mutans ATCC 25175 was pre-cultured in a brain-heart infusion (BHI) medium for 12 hours, and was washed twice with a 2 mM potassium phosphate buffer, and then was subjected to main culture in a minimal medium prepared with reference to the previously reported document (Fujiwara et al (1978) Arch Oral Biol. 23, 601-602) at 37° C. and 180 rpm. The composition of the minimal medium includes, in 5 mL of a 50 mM Tris-HCl buffer (pH 7.4), 10 mg of L-glutamic acid, 1 mg of cysteine hydrochloride, 4.5 mg of L-leucine, 5 mg of ammonium chloride, 17.5 mg of potassium hydrogen phosphate, 7.5 mg of potassium dihydrogen phosphate, 21 mg of a carbonate, 6 mg of magnesium sulfate heptahydrate, 0.1 mg of manganese chloride tetrahydrate, 3 mg of sodium pyruvate, 5 μg of riboflavin, 2.5 μg of thiamine hydrochloride, 0.5 μg of biotin, 5 μg of nicotinic acid, 0.5 μg of p-aminobenzoic acid, 2.5 μg of calcium pantothenate, and 5 μg of pyridoxine hydrochloride. […] The bacteria were main-cultured using the method of Example 5 for 35 h, and a degree of the cell growth was measured by measuring the absorbance of a culture at a wavelength of 600 nm every 5 h.

Streptococcus mutans [5] = assay: Growth and acid production under mixed carbon source condition, 5 mL culture, absorbance and HPLC; type: cell-based, Streptococcus mutans ATCC 25175
Procedure: Strains used in the present experiment are Streptococcus mutans ATCC 25175, S. oralis, and S. sanguinis. Representatively, Streptococcus mutans ATCC 25175 was pre-cultured in a brain-heart infusion (BHI) medium for 12 hours, and was washed twice with a 2 mM potassium phosphate buffer, and then was subjected to main culture in a minimal medium prepared with reference to the previously reported document (Fujiwara et al (1978) Arch Oral Biol. 23, 601-602) at 37° C. and 180 rpm. The composition of the minimal medium includes, in 5 mL of a 50 mM Tris-HCl buffer (pH 7.4), 10 mg of L-glutamic acid, 1 mg of cysteine hydrochloride, 4.5 mg of L-leucine, 5 mg of ammonium chloride, 17.5 mg of potassium hydrogen phosphate, 7.5 mg of potassium dihydrogen phosphate, 21 mg of a carbonate, 6 mg of magnesium sulfate heptahydrate, 0.1 mg of manganese chloride tetrahydrate, 3 mg of sodium pyruvate, 5 μg of riboflavin, 2.5 μg of thiamine hydrochloride, 0.5 μg of biotin, 5 μg of nicotinic acid, 0.5 μg of p-aminobenzoic acid, 2.5 μg of calcium pantothenate, and 5 μg of pyridoxine hydrochloride. To verify an effect of 3,6-anhydro-L-galactose or xylitol on the growth of Streptococcus mutans and acid production, Streptococcus mutans bacteria were cultured, using the method of Example 5, in 5 mL of a liquid minimal medium containing 10 g/L of glucose and 0 g/L, 5 g/L or 10 g/L of 3,6-anhydro-L-galactose or 20 g/L or 40 g/L of xylitol for 35 h, and cell growth was measured using absorbance every 5 hours and concentrations of an extracellular substrate and acid production were measured by HPLC. A glucose only-added condition was set as a negative control, and a glucose- and xylitol-added condition was set as a positive control. A column used for analysis was Aminex HPX-87H, and 0.01 N of sulfuric acid as a mobile phase was flowed at a rate of 0.5 mL/min and 65° C.

Streptococcus mutans [6] = assay: Growth inhibition under mixed carbon source condition (10 g/L glucose), 96-well plate; type: cell-based, Streptococcus mutans ATCC 25175
Procedure: as §1

For `OC[C@@H](O)[C@H](O)[C@@H](O)CO` [xylitol], the non-growth rate (S. mutans [1]; 10 g/L fructose) was 0.085 h⁻¹, the non-growth rate (S. mutans [1]; 10 g/L maltose) was 0.045 h⁻¹ and the “cell growth of S. mutans, concentration dependence” value (S. mutans [1]; 10 g/L sucrose, 0-40 g/L added) was “decreased as the concentration of xylitol was increased”. For the same molecule, the non-growth rate (S. mutans [1]; 10 g/L sucrose) was 0.061 h⁻¹, the “cell growth of S. mutans” value (S. mutans [1]; 10 g/L sucrose, 40 g/L added (maximum concentration)) was “did not completely inhibit” and the “inhibitory effect on S. sanguinis” value (S. sanguinis) was “strong inhibitory effect”. For the same molecule, the “concentration at which the growth of S. mutans can be inhibited” value (S. mutans [2]) was at least 25 g/L, the “formation of colonies compared to the glucose condition” value (Streptococcus mutans [3]) was “inhibited” and the “dry cell weight (DCW) of Streptococcus mutans” value (Streptococcus mutans [4]) was 1.46 g/L. For the same molecule, the “concentration of produced acetic acid” value (Streptococcus mutans [5]; 20 g/L in 10 g/L glucose) was 0.55 g/L, the “concentration of produced lactic acid” value (Streptococcus mutans [5]; 20 g/L in 10 g/L glucose) was 3.67 g/L and the “final dry cell weight” value (Streptococcus mutans [5]; 20 g/L in 10 g/L glucose) was 1.42 g/L. For the same molecule, the glucose consumed (Streptococcus mutans [5]; 20 g/L in 10 g/L glucose) was 5.28 g/L, the non-growth rate (Streptococcus mutans [5]; 20 g/L in 10 g/L glucose) was 0.087 h⁻¹ and the “concentration of consumed glucose” value (Streptococcus mutans [5]; 40 g/L in 10 g/L glucose) was 5.42 g/L. For the same molecule, the “concentration of produced acetic acid” value (Streptococcus mutans [5]; 40 g/L in 10 g/L glucose) was 0.55 g/L, the “concentration of produced lactic acid” value (Streptococcus mutans [5]; 40 g/L in 10 g/L glucose) was 3.67 g/L and the “inhibition of growth of Streptococcus mutans and acid production” value (Streptococcus mutans [5]; 40 g/L in 10 g/L glucose) was “did not completely inhibit”. For the same molecule, the lag phase (Streptococcus mutans [5]; 40 g/L in 10 g/L glucose, compared with 20 g/L) was “longer”, the “use as a carbon source / fermentation by Streptococcus mutans” value (Streptococcus mutans [5]; in 10 g/L glucose) was “non-fermentation properties” and the “concentration of the added sugar during culture” value (Streptococcus mutans [5]; in 10 g/L glucose, 35 h culture) was “constantly maintained”. For the same molecule, the “growth of Streptococcus mutans, concentration dependence” value (Streptococcus mutans [6]; 0-60 g/L added to 10 g/L glucose) was “inhibited as the treated concentration of xylitol was increased” and the “growth of Streptococcus mutans” value (Streptococcus mutans [6]; 40 g/L added to 10 g/L glucose) was “considerable cell growth was observed”.
